As a reminder, the pEC50 is the negative decadic logarithm of the EC50, by convention in mol/L. As usually defined, the pIC50 is −log10 of the IC50, conventionally taken in molar units. As usually defined, the EC50 is the concentration needed to bring the measured effect to its halfway point. A lower EC50 goes with higher potency in that assay.

Here are results for 42 compounds from patent publication US20150094294A1, “COMPOUNDS AND METHODS FOR TREATING MALARIA” (Cellceutix Corporation, priority 2012, published 2015).

Type in all cases: cell-based
The subject of one data set is 3T3 cells. Nature of the data set: Cytotoxicity against 3T3 cells.
In a further data set the test system is HepG2 cells. The data set is described as follows: Cytotoxicity against HepG2 cells.
Data set [1] concerns P. falciparum 3D7 (chloroquine-sensitive). Nature of the data set: Anti-malarial activity, P. falciparum 3D7 culture, 72 hour, DNA content by flow cytometry. Particulars: synchronized ring-stage parasites. A digest of the protocol:
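Magnet-synchronized ring-stage parasites in RPMI 1640/Albumax II were plated at 0.5% parasitemia, 4% final hematocrit, with compound added as 2× dilutions (2.5 μM to 20 nM) for 72 h. Fixed, Triton-permeabilized cells were stained with SYTOX Green (5 μM final), and DNA content was measured by flow cytometry to derive IC50.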

Data set [2] is described as follows: Cytotoxicity against 3T3 cells. The following applies: mouse, 3T3 cells; read-out: Cytotoxicity 3T3 EC50.
A short description of data set [3]: Cytotoxicity against HepG2 cells. The following applies: human, HepG2 cells; read-out: Cytotoxicity HepG2 EC50.
The nature of another data set: in vitro.

Structures are written as SMILES. pEC50, pIC50: −log10 of the molar value. Values after ≈ are worked out from the molar mass of the structure shown.

In the case of `N=C(N)NCCCCC(=O)Nc1cc(F)cc(NC(=O)c2cc(C(=O)Nc3cc(F)cc(NC(=O)CCCCNC(=N)N)c3SCCN)ncn2)c1SCCN` [Compound 105], the values for the pEC50 in the data set on 3T3 cells and with HepG2 cells were 4.36 and 4.09, respectively. For the same compound, the pIC50 in data set [1] is 6.65.
Take `N=C(N)NCCCCCC(=O)Nc1cc(C(F)(F)F)cc(NC(=O)c2cc(C(=O)Nc3cc(C(F)(F)F)cc(NC(=O)CCCCCNC(=N)N)c3SCCN)ncn2)c1SCCN` [Compound 106]: the pEC50 in the data set with 3T3 cells was 4.10; in the data set on HepG2 cells it was 4.05. For the same compound, the pIC50 in data set [1] was 6.54.
`CCN(CC)CCN(CCN)c1c(Cl)cc(C(F)(F)F)cc1NC(=O)Nc1cc(C(F)(F)F)cc(Cl)c1N(CCN)CCN(CC)CC` [Compound 124]: the pEC50 was 4.70 with 3T3 cells and 4.62 with HepG2 cells. In data set [1], this compound gave a pIC50 of 6.49.
For `CCN(CC)CCN(CCN)c1ccc(C(F)(F)F)cc1NC(=O)Nc1cc(C(F)(F)F)ccc1N(CCN)CCN(CC)CC` [Compound 126], the pEC50 is 3.85 with 3T3 cells and 3.25 with HepG2 cells. This compound also showed a pIC50 in data set [1] of 6.18.
Regarding `CCN(CC)CCN(CCN)c1c(F)cc(C(F)(F)F)cc1NC(=O)Nc1cc(C(F)(F)F)cc(F)c1N(CCN)CCN(CC)CC` [Compound 127], the pEC50 is 3.88 in the data set with 3T3 cells and 3.38 in the data set with HepG2 cells. Also, the pIC50 in data set [1] was 6.13.
The like results for `N=C(N)NCCCOc1cccc(-c2cncc(-c3cccc(OCCCNC(=N)N)c3)c2)c1` [Compound 133] were, in that order, 3.53, 3.26 and 6.93.
Consider `N=C(N)NCCCc1cccc(-c2cc(-c3cccc(CCCNC(=N)N)c3)ncn2)c1` [Compound 135], for which the pEC50 with 3T3 cells was 3.21; in the data set with HepG2 cells, 3.16. In data set [1], this compound had a pIC50 of 6.88.
For `N=C(N)NCCCOc1cc(OCCCNC(=N)N)c(-c2cccc(F)c2)cc1-c1cccc(F)c1` [Compound 138], the negative logarithm of the EC50 (pEC50) in the data set with 3T3 cells is 4.11; in the data set on HepG2 cells, 4.07. This compound also had a pIC50 in data set [1] of 6.65.
For the compound `N=C(N)NCCc1cccc(NC(=O)c2cc(C(=O)Nc3cccc(CCNC(=N)N)c3)nc(SCCN)n2)c1` [Compound 182], the figures for the pEC50 in the data set on 3T3 cells and with HepG2 cells were 3.48 and 3.46, respectively. In data set [1], this compound showed a pIC50 of 6.25.
The like results for `O=C(Nc1ccc(O[C@@H]2CCNC2)c(C(F)(F)F)c1)c1cc(C(=O)Nc2ccc(O[C@@H]3CCNC3)c(C(F)(F)F)c2)ncn1` [Compound 187] were, in that order, 4.38, 3.89 and 7.39.
For `Nc1cccc(NC(=O)c2cc(C(=O)Nc3cccc(N)n3)ncn2)n1` [Compound 189], the pEC50 with 3T3 cells and in the data set on HepG2 cells was under 3.00 in each case. The compound further had a pIC50 in data set [1] of under 5.70.
Turning to `N=C(N)N1CC[C@@H](Oc2ccc(NC(=O)c3cc(C(=O)Nc4ccc(O[C@@H]5CCN(C(=N)N)C5)c(C(F)(F)F)c4)ncn3)cc2C(F)(F)F)C1` [Compound 190], the pEC50 in the data set on 3T3 cells was 4.48; with HepG2 cells, 4.39. The compound also gave a pIC50 in data set [1] of 7.59.
Consider `CC(C)(C)c1cc(NC(=O)c2cccc(C#N)c2)c(SCCN)c(NC(=O)c2cc(C(=O)Nc3cc(C(C)(C)C)cc(NC(=O)c4cccc(C#N)c4)c3SCCN)ncn2)c1` [Compound 198], for which the pEC50 is 5.15 in the data set with 3T3 cells and 4.52 in the data set with HepG2 cells. Also, the pIC50 in data set [1] was 8.30.
Take `O=C(Nc1ccc(OC2CCNCC2)cc1)c1cc(C(=O)Nc2ccc(OC3CCNCC3)cc2)ncn1` [Compound 199]: the pEC50 with 3T3 cells was 3.72; in the data set with HepG2 cells it was 3.45. This compound showed a pIC50 in data set [1] of 8.00.
With `CN(C)CCSc1ccc(NC(=O)c2cc(C(=O)Nc3ccc(SCCN(C)C)cc3)ncn2)cc1` [Compound 202], the results for the pEC50 in the data set with 3T3 cells and with HepG2 cells were 3.20 and 3.19, respectively. Further, in data set [1], the pIC50 is 8.15.
Turning to `O=C(Nc1ccc(OC2CCNC2)c(F)c1)c1cc(C(=O)Nc2ccc(OC3CCNC3)c(F)c2)ncn1` (stereo not shown) [Compound 209], the values for the pEC50 with 3T3 cells and with HepG2 cells were 3.37 and 3.29, respectively. The pIC50 in data set [1] was 7.18.
Taken in the same sequence, the figures for `O=C(Nc1ccc(N2CCNCC2)cc1)c1cccc(C(=O)Nc2ccc(N3CCNCC3)cc2)n1` [Compound 211] were under 3.00, under 3.00 and under 7.00.
In the case of `CN(C)C1CCN(c2ccc(NC(=O)c3cc(C(=O)Nc4ccc(N5CCC(N(C)C)CC5)cc4)ncn3)cc2)CC1` [Compound 213], the results for the pEC50 with 3T3 cells and in the data set with HepG2 cells were 3.61 and 4.29, respectively. In data set [1], the pIC50 is 7.46.
Turning to `Nc1cc(NC(=O)c2cc(C(=O)Nc3ccc(N4CCNCC4)c(F)c3)ncn2)ccc1N1CCNCC1` [Compound 218], the values for the pEC50 in the data set on 3T3 cells and with HepG2 cells were 4.34 and 3.63, respectively. The compound also showed a negative-log IC50 (pIC50) in data set [1] of 7.25.
`NCCSc1nc(-c2cccc(CCN)c2)cc(-c2cccc(CCN)c2)n1` [Compound 220]: the pEC50 with 3T3 cells and in the data set on HepG2 cells was under 3.00 in each case. For the same compound, the pIC50 in data set [1] is 5.81.
Consider `NCCc1cccc(-c2cncc(-c3ccc(-c4cncc(-c5cccc(CCN)c5)c4)s3)c2)c1` [Compound 223], for which the pEC50 in the data set on 3T3 cells is 4.74; with HepG2 cells, 4.09. For the same compound, the pIC50 in data set [1] is 6.29.
The like results for `NCCCOc1cccc(-c2cncc(-c3ccc(-c4cncc(-c5cccc(OCCCN)c5)c4)s3)c2)c1` [Compound 225] were, in that order, 4.46, 3.75 and 6.34.
`N=C(N)NCCCOc1cccc(-c2cncc(-c3ccc(-c4cncc(-c5cccc(OCCCNC(=N)N)c5)c4)s3)c2)c1` [Compound 227]: the results for the pEC50 in the data set on 3T3 cells and in the data set on HepG2 cells were 4.27 and 3.93, respectively. This compound had a pIC50 in data set [1] of 6.19.
The like results for `NCCc1cccc(-c2cc(-c3ccc(-c4cc(-c5cccc(CCN)c5)ncn4)s3)ncn2)c1` [Compound 229] were, in that order, 5.52, 3.58 and 6.20.
As for `N=C(N)NCCc1cccc(-c2cncc(-c3ccc(-c4cncc(-c5cccc(CCNC(=N)N)c5)c4)cc3)c2)c1` [Compound 231], the pEC50 with 3T3 cells is 3.00; with HepG2 cells it was under 3.00. In addition, the pIC50 in data set [1] is 6.43.
As for `NCCc1cccc(-c2cncc(-c3ccc(-c4cncc(-c5cccc(CCN)c5)c4)cc3)c2)c1` [Compound 234], the pEC50 in the data set with 3T3 cells and in the data set with HepG2 cells was under 3.00 throughout. The compound further had a negative-log IC50 (pIC50) in data set [1] of 6.18.
Turning to `NCCc1cccc(-c2ccc(-c3cccc(CCN)c3)cc2)c1` [Compound 235], the pEC50 in the data set on 3T3 cells was 4.85; in the data set with HepG2 cells, 3.81. For the same compound, the pIC50 in data set [1] was under 5.70.
As to `NCCc1cccc(-c2ccc(-c3cccc(CCN)c3)s2)c1` [Compound 236], the pEC50 with 3T3 cells is over 4.85; in the data set on HepG2 cells, 3.73. Also, the pIC50 in data set [1] is under 5.70.
Consider `NCCc1cccc(-c2ccc(-c3cccc(CCN)c3)o2)c1` [Compound 237], for which the pEC50 with 3T3 cells was 5.70; in the data set with HepG2 cells it was 3.65. The pIC50 in data set [1] is under 5.70.
In the case of `N=C(N)NCCc1cccc(-c2ccc(-c3cccc(CCNC(=N)N)c3)s2)c1` [Compound 238], the pEC50 in the data set with 3T3 cells was 3.97; in the data set on HepG2 cells it was 3.51. In data set [1], this compound gave a negative logarithm of the IC50 (pIC50) of 6.96.
For `N=C(N)NCCc1cccc(-c2ccc(-c3cccc(CCNC(=N)N)c3)cc2)c1` [Compound 239], the values for the pEC50 with 3T3 cells and with HepG2 cells were 3.83 and 3.54, respectively. Further, in data set [1], the pIC50 was 6.99.
Taken in the same sequence, the figures for `N=C(N)NCCc1cccc(-c2ccc(-c3cccc(CCNC(=N)N)c3)o2)c1` [Compound 240] were 3.34, 3.04 and 6.92.
Regarding `NCCCOc1cccc(-c2ccc(-c3cccc(OCCCN)c3)s2)c1` [Compound 241], the pEC50 in the data set on 3T3 cells was 4.47; in the data set on HepG2 cells, 4.42. This compound showed a pIC50 in data set [1] of under 5.70.
As to `NCCc1cccc(-c2cnc(-c3cccc(CCN)c3)s2)c1` [Compound 242], the pEC50 with 3T3 cells was 4.15; in the data set with HepG2 cells it was 3.23. The pIC50 in data set [1] is under 5.70.
Take `N=C(N)NCCc1cccc(-c2cnc(-c3cccc(CCNC(=N)N)c3)s2)c1` [Compound 243]: the pEC50 in the data set on 3T3 cells was 3.28; in the data set with HepG2 cells, 3.14. Further, the pIC50 in data set [1] is 7.24.
Consider `NCCCc1ccc(-c2ccc(-c3ccc(CCCN)cc3)s2)cc1` [Compound 263], for which the pEC50 in the data set on 3T3 cells is 5.22; with HepG2 cells, 6.00.
Regarding `C[N+]1(C)CCN(c2ccc(-c3ccc(-c4ccc(N5CC[N+](C)(C)CC5)cc4)o3)cc2)CC1` [Compound 264], the pEC50 in the data set on 3T3 cells and in the data set on HepG2 cells was under 3.00 throughout.
`c1cc2sc3ccc(NC4CCNCC4)cc3c2cc1NC1CCNCC1` [Compound 295]: the pEC50 in the data set on 3T3 cells and in the data set with HepG2 cells was under 3.00 each time.
`CN(C)C1CCN(c2ccc3sc4ccc(N5CCC(N(C)C)CC5)cc4c3c2)CC1` [Compound 297]: the pEC50 is 3.29 in the data set with 3T3 cells and 3.17 with HepG2 cells.
As for `CCn1c2ccc(N3CCC(N(C)C)CC3)cc2c2cc(N3CCC(N(C)C)CC3)ccc21` [Compound 298], the pEC50 with 3T3 cells and in the data set on HepG2 cells was under 3.00 each time.
On to `NCCSc1c(NC(=O)c2cccnc2)cc(C(F)(F)F)cc1NC(=O)c1cc(C(=O)Nc2cc(C(F)(F)F)cc(NC(=O)c3cccnc3)c2SCCN)ncn1` [Compound 315], for which the pEC50 with 3T3 cells was 4.68; in the data set with HepG2 cells, 4.47.
As for `c1cc(-c2ccc(N3CCNCC3)nc2)cc(-c2cccc(-c3ccc(N4CCNCC4)nc3)c2)c1` [Compound 319], the figures for the pEC50 in data set [2] and in data set [3] were 4.24 and 4.08, respectively. The compound also gave a pIC50 in data set [1] (Plasmodium falciparum, 3D7, 72 h) of under 7.00. Besides, it took 52 µg/mL (≈ 109 µM) to reach a half-maximal effect in the data set “in vitro” (EC50).
